Laboratory results as given in patent US20240246964A1 (Arbutus Biopharma Corporation, priority 2021, published 2024).

These molecules were tested against human PD-L1 (Homo sapiens (Human), UniProt Q9NZQ7) (assay: T cell activation luciferase reporter cell culture system (T Cell Activation Assay)). Conditions: luciferase reporter assay; PD-L1 aAPC/CHO-K1 cells with PD-1 effector Jurkat T cells.
Assay type: cell-based

Chain of human PD-L1 (Q9NZQ7 19-290): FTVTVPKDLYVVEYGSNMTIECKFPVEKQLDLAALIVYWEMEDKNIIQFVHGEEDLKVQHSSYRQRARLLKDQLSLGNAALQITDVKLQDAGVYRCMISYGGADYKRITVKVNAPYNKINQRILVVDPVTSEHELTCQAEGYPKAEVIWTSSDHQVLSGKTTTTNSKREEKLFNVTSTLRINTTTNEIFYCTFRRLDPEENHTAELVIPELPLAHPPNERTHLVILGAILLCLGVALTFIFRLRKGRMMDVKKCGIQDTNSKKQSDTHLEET

First: COc1nc(-c2cccc(-c3nccc(-c4ccc(CNC[C@@H]5CCC(=O)N5)c(OC)n4)c3Cl)c2Cl)ccc1CNC[C@@H]1CCC(=O)N1 [Compound 575, (S)-5-((((3′-Chloro-2′-(2-chloro-3-(6-methoxy-5-(((((S)-5-oxopyrrolidin-2-yl)methyl)amino)methyl)pyridin-2-yl)phenyl)-6-methoxy-[2,4′-bipyridin]-5-yl)methyl)amino)methyl)pyrrolidin-2-one]
Second: COc1nc(-c2cccc(-c3ccnc(-c4cc(OC)c5nc(CNC[C@@H]6CCC(=O)N6)nn5c4)c3Cl)c2Cl)ccc1CNC[C@@H]1CCC(=O)N1 [Example 258, (S)-5-((((6-(2-chloro-3-(3-chloro-2-(8-methoxy-2-(((((S)-5-oxopyrrolidin-2-yl)methyl)amino)methyl)-[1,2,4]triazolo[1,5-a]pyridin-6-yl)pyridin-4-yl)phenyl)-2-methoxypyridin-3-yl)methyl)amino)methyl)pyrrolidin-2-one]
The EC50 of the first is 5.3-fold lower: 14.1 nM for the first, 75.4 nM for the second.

Compared with `CCC(=O)N1CCC(NCc2ccc(-c3cccc(-c4ccnc(-c5cc(F)c(CNC6CCN(C(=O)CC)CC6)c(OC)c5)c4Cl)c3Cl)nc2OC)CC1` [Example 331, 1-(4-(((6-(2-Chloro-3-(3-chloro-2-(3-fluoro-5-methoxy-4-(((1-propionylpiperidin-4-yl)amino)methyl)phenyl)pyridin-4-yl)phenyl)-2-methoxypyridin-3-yl)methyl)amino)piperidin-1-yl)propan-1-one], `COC(=O)N1CCC(NCc2ccc(-c3nccc(-c4cccc(-c5ccc(CNC6CCN(C(=O)OC)CC6)c(OC)n5)c4Cl)c3Cl)cc2OC)CC1` [Example 465, Methyl 4-(((6-(2-chloro-3-(3-chloro-2-(3-methoxy-4-(((1-(methoxycarbonyl)piperidin-4-yl)amino)methyl)phenyl)pyridin-4-yl)phenyl)-2-methoxypyridin-3-yl)methyl)amino)piperidine-1-carboxylate] is 2.8-fold higher in EC50: 17 nM for the first, 48.3 nM for the second.

`COCCNCc1ccc(-c2nccc(-c3cccc(-c4ccc(CNCCOC)c(OC)n4)c3C(F)(F)F)c2Cl)cc1OC` [Example 614, N-((6-(3-(3-Chloro-2-(3-methoxy-4-(((2-methoxyethyl)amino)methyl)phenyl)pyridin-4-yl)-2-(trifluoromethyl)phenyl)-2-methoxypyridin-3-yl)methyl)-2-methoxyethan-1-amine] and `CNCc1ccc(-c2nccc(-c3cccc(-c4ccc(CNC)c(OC)n4)c3C(F)(F)F)c2Cl)cc1OC` [Example 613, 1-(6-(3-(3-Chloro-2-(3-methoxy-4-((methylamino)methyl)phenyl)pyridin-4-yl)-2-(trifluoromethyl)phenyl)-2-methoxypyridin-3-yl)-N-methylmethanamine] cannot be ordered by EC50: ≥ 10000 nM for the first, ≥ 10000 nM for the second.

First: COc1cc(-c2nccc(-c3cccc(-c4ccc5c(CNC6CCN(C(C)=O)CC6)cn(C)c5n4)c3Cl)c2Cl)ccc1CNC[C@@H]1CCC(=O)N1 [Cmpd 57, (S)-5-(((4-(4-(3-(3-(((1-acetylpiperidin-4-yl)amino)methyl)-1-methyl-1H-pyrrolo[2,3-b]pyridin-6-yl)-2-chlorophenyl)-3-chloropyridin-2-yl)-2-methoxybenzyl)amino)methyl)pyrrolidin-2-one]
Second: COc1cc(-c2nccc(-c3cccc(-c4ccc5c(CNCC6CCOCC6)cn(C)c5n4)c3Cl)c2Cl)ccc1CNC1CCN(C(C)=O)CC1 [Example 557, 1-(4-((4-(3-chloro-4-(2-chloro-3-(1-methyl-3-((((tetrahydro-2H-pyran-4-yl)methyl)amino)methyl)-1H-pyrrolo[2,3-b]pyridin-6-yl)phenyl)pyridin-2-yl)-2-methoxybenzyl)amino)piperidin-1-yl)ethan-1-one]
The EC50 of the first is 19-fold lower: 19.8 nM for the first, 378 nM for the second. The first is the more potent here.

Going from `COc1cc(-c2nccc(-c3cccc(-c4ccc(CNC[C@@H]5CCC(=O)N5)c(OC)n4)c3Cl)c2Cl)ccc1CN1CCC[C@H]1C(=O)O` [Cmpd 78, (4-(3-chloro-4-(2-chloro-3-(6-methoxy-5-(((((S)-5-oxopyrrolidin-2-yl)methyl)amino)methyl)pyridin-2-yl)phenyl)pyridin-2-yl)-2-methoxybenzyl)-L-proline] to `COc1cc(-c2nccc(-c3cccc(-c4ccc(CNC[C@@H]5CCC(=O)N5)c(OC)n4)c3Cl)c2Cl)cc2c1CN(C[C@H]1C[C@H](O)C1)CC2` [Cmpd 133], the EC50 falls from 205 nM to 21.4 nM (9.6-fold). The second is the more potent here.

Going from `COc1nc(-c2ccnc(-c3cccc4c3CCC[C@@H]4Nc3nc(OC)c(CNC4(C(=O)O)CC4)cc3C(F)(F)F)c2Cl)ccc1CNC[C@@H]1CCC(=O)N1` [Example 704] to `COc1nc(-c2ccnc(-c3cccc4c3CC[C@@H]4Nc3nc(OC)c(CNC[C@@H]4CCC(=O)N4)cc3C(F)(F)F)c2Cl)ccc1CNC1CCOCC1` [Example 666, (S)-5-((((6-(((S)-4-(3′-Chloro-6-methoxy-5-(((tetrahydro-2H-pyran-4-yl)amino)methyl)-[2,4′-bipyridin]-2′-yl)-2,3-dihydro-1H-inden-1-yl)amino)-2-methoxy-5-(trifluoromethyl)pyridin-3-yl)methyl)amino)methyl)pyrrolidin-2-one], the EC50 falls from ≥ 10000 nM to 114 nM. The second is the more potent here.

Compared with `COc1cc(-c2nccc(-c3cccc(-c4ccc(CN(C)C5CCOCC5)c(OC)n4)c3Cl)c2Cl)ccc1CNC1CCN(C(C)=O)CC1` [Example 436, 1-(4-((4-(3-chloro-4-(2-chloro-3-(6-methoxy-5-((methyl(tetrahydro-2H-pyran-4-yl)amino)methyl)pyridin-2-yl)phenyl)pyridin-2-yl)-2-methoxybenzyl)amino)piperidin-1-yl)ethan-1-one], `COc1cc(-c2nccc(-c3cccc(-c4ccc(CN(C)C5CCN(C(C)=O)CC5)c(OC)n4)c3Cl)c2Cl)ccc1CNC1CCOCC1` [Example 469, 1-(4-(((6-(2-chloro-3-(3-chloro-2-(3-methoxy-4-(((tetrahydro-2H-pyran-4-yl)amino)methyl)phenyl)pyridin-4-yl)phenyl)-2-methoxypyridin-3-yl)methyl)(methyl)amino)piperidin-1-yl)ethan-1-one] is 1.7-fold lower in EC50: 134 nM for the first, 79.3 nM for the second. The second is the more potent here.

`COc1cc(-c2nccc(-c3cccc(-c4ccc(CN5CC6(C5)CN(C(C)=O)C6)c(OC)n4)c3C(F)(F)F)c2Cl)ccc1CN1CC2(C1)CN(C(C)=O)C2` [Example 577, 1-(6-((6-(3-(2-(4-((6-Acetyl-2,6-diazaspiro[3.3]heptan-2-yl)methyl)-3-methoxyphenyl)-3-chloropyridin-4-yl)-2-(trifluoromethyl)phenyl)-2-methoxypyridin-3-yl)methyl)-2,6-diazaspiro[3.3]heptan-2-yl)ethan-1-one] and `COc1cc(-c2nccc(-c3cccc(-c4ccc(CNC[C@H](C)O)c(OC)n4)c3C(F)(F)F)c2Cl)ccc1CNC[C@H](C)O` [Example 580, (S)-1-(((6-(3-(3-Chloro-2-(4-((((S)-2-hydroxypropyl)amino)methyl)-3-methoxyphenyl)pyridin-4-yl)-2-(trifluoromethyl)phenyl)-2-methoxypyridin-3-yl)methyl)amino)propan-2-ol] cannot be ordered by EC50: ≥ 10000 nM for the first, ≥ 10000 nM for the second.

Compared with `COc1cc(-c2nccc(-c3cccc4c3CCC[C@@H]4Nc3nc(OC)c(CNC[C@H](C)O)cc3C(F)(F)F)c2Cl)ccc1CNC[C@@H]1CCC(=O)N1` [Example 736, (S)-5-(((4-(3-Chloro-4-((S)-5-((5-((((S)-2-hydroxypropyl)amino)methyl)-6-methoxy-3-(trifluoromethyl)pyridin-2-yl)amino)-5,6,7,8-tetrahydronaphthalen-1-yl)pyridin-2-yl)-2-methoxybenzyl)amino)methyl)pyrrolidin-2-one], `COc1nc(-c2cccc(-c3ccnc(-c4cc(F)c5c(c4)CCN(CC(C)(C)O)C5)c3Cl)c2Cl)ccc1CNC[C@@H]1CCC(=O)N1` [Cmpd 46, (S)-5-((((6-(2-chloro-3-(3-chloro-2-(8-fluoro-2-(2-hydroxy-2-methylpropyl)-1,2,3,4-tetrahydroisoquinolin-6-yl)pyridin-4-yl)phenyl)-2-methoxypyridin-3-yl)methyl)amino)methyl)pyrrolidin-2-one] is lower in EC50: ≥ 10000 nM for the first, 171 nM for the second.

First: COc1cc(-c2nccc(-c3cccc(NC(=O)c4ccc(CNCCCF)cn4)c3Cl)c2Cl)ccc1CNCCCF [Example 702, N-(2-Chloro-3-(3-chloro-2-(4-(((3-fluoropropyl)amino)methyl)-3-methoxyphenyl)pyridin-4-yl)phenyl)-5-(((3-fluoropropyl)amino)methyl)picolinamide]
Second: COc1cc(-c2nccc(-c3cccc(-c4ccc(CNC5CCN(C)C(=O)C5)c(OC)n4)c3Cl)c2Cl)ccc1CNC1CCN(C)C(=O)C1 (stereo not shown) [Example 418, 4-(((6-(2-Chloro-3-(3-chloro-2-(3-methoxy-4-(((1-methyl-2-oxopiperidin-4-yl)amino)methyl)phenyl)pyridin-4-yl)phenyl)-2-methoxypyridin-3-yl)methyl)amino)-1-methylpiperidin-2-one]
The EC50 of the first is 23-fold higher: 266 nM for the first, 11.8 nM for the second.

Going from `COc1nc(-c2cccc(-c3ccnc(-c4cc(Cl)c5c(c4)CCN(C[C@@H]4CCC(=O)N4)C5)c3Cl)c2Cl)ccc1CNC[C@@H]1CCC(=O)N1` [Cmpd 67, (S)-5-((((6-(2-chloro-3-(3-chloro-2-(8-chloro-2-(((S)-5-oxopyrrolidin-2-yl)methyl)-1,2,3,4-tetrahydroisoquinolin-6-yl)pyridin-4-yl)phenyl)-2-methoxypyridin-3-yl)methyl)amino)methyl)pyrrolidin-2-one] to `COc1nc(-c2cccc(-c3ccnc(-c4ccc5c(c4)CCC[C@H]5NC[C@@H]4CCC(=O)N4)c3Cl)c2Cl)ccc1CN[C@@H](CCO)C(=O)O` [Example 265, ((6-(2-Chloro-3-(3-chloro-2-((R)-5-((((S)-5-oxopyrrolidin-2-yl)methyl)amino)-5,6,7,8-tetrahydronaphthalen-2-yl)pyridin-4-yl)phenyl)-2-methoxypyridin-3-yl)methyl)-L-homoserine], the EC50 rises from 101 nM to 368 nM (3.6-fold). The first is the more potent here.

What follows are molecules tested against PD-L1 His protein / PD-1 Fc protein (Homo sapiens (Human), UniProt Q9NZQ7) (assay: HTRF Assay (PD-1/PD-L1 interaction)). Conditions: PD-L1 His 6 nM, PD-1 Fc 6 nM.
Assay type: binding

Chain of PD-L1 His protein / PD-1 Fc protein (Q9NZQ7 19-238): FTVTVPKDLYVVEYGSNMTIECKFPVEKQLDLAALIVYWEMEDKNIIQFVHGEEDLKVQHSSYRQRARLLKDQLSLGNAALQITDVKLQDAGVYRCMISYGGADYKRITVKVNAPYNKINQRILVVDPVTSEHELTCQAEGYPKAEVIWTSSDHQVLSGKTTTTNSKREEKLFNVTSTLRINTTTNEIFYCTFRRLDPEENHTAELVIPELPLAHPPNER

Going from `COc1nc(-c2cccc(-c3nccc(-c4ccc(CNC[C@@H]5CCC(=O)N5)c(OC)n4)c3Cl)c2Cl)ccc1CNC[C@@H]1CCC(=O)N1` [Compound 575, (S)-5-((((3′-Chloro-2′-(2-chloro-3-(6-methoxy-5-(((((S)-5-oxopyrrolidin-2-yl)methyl)amino)methyl)pyridin-2-yl)phenyl)-6-methoxy-[2,4′-bipyridin]-5-yl)methyl)amino)methyl)pyrrolidin-2-one] to `COc1nc(-c2ccnc(-c3cccc4c3CC[C@@H]4Oc3nc(OC)c(CNC[C@@H]4CCC(=O)N4)cc3C(F)(F)F)c2Cl)ccc1CNC1CCN(C(C)=O)CC1` [Example 544, (S)-5-((((6-(((S)-4-(5-(((1-acetylpiperidin-4-yl)amino)methyl)-3′-chloro-6-methoxy-[2,4′-bipyridin]-2′-yl)-2,3-dihydro-1H-inden-1-yl)oxy)-2-methoxy-5-(trifluoromethyl)pyridin-3-yl)methyl)amino)methyl)pyrrolidin-2-one], the IC50 rises from 0.11 nM to 0.8 nM (7.3-fold). The first is the more potent here.

`CCC(=O)N1CCC(NCc2ccc(-c3cccc(-c4ccnc(-c5cc(F)c(CNC6CCN(C(=O)CC)CC6)c(OC)c5)c4Cl)c3Cl)nc2OC)CC1` [Example 331, 1-(4-(((6-(2-Chloro-3-(3-chloro-2-(3-fluoro-5-methoxy-4-(((1-propionylpiperidin-4-yl)amino)methyl)phenyl)pyridin-4-yl)phenyl)-2-methoxypyridin-3-yl)methyl)amino)piperidin-1-yl)propan-1-one] was tested, and the IC50 was 23.6 nM.
